# Results published in patent US7807877B2, “Genetic sequences having methyltransferase activity and uses therefor” (International Flower Developments Pty. Ltd., priority 2002, dated 2010).
# Test system: rose petals
# Assay: Incubation of excised rose petal segments with precursors or end products
# Type: cell-based, Rosa hybrida
# Conditions: around 16 hours; for Color at cut edge after incubation in DHM: around 23° C.; for Color at cut edge upon production of delphinidin: incubation in dihydromyricetin 1-2 mg/mL
# Procedure: To determine whether rose petals contained the enzymes necessary for conversion of dihydromyricetin to delphinidin, precursor-feeding experiments with dihydromyricetin were initiated.
# Petal segments of a selection of commercial cultivars of roses (Toplesse, Lambada, Medeo, Pamela, Sonia, Oceana, Mystique) were placed in solutions of 1-2 mg/mL dihydromyrectin or water only and incubated for around 16 hours in a growth room at a temperature of around 23° C. Pink/purple colors were observed near the cut edges of the petals (Table 6).
# Petal segments of roses were placed in solutions of 1-2 mg/mL malvidin 3,5-diglucoside, 1-2 mg/mL dihydromyrectin or water only and incubated for around 16 hours in a growth room at a temperature of around 23° C. The production of colors in the purple range were observed near the cut edges of the petals upon incubation with dihydromyrectin or malvidin 3,5-diglucoside (Table 7).
compound,measurement,setting,value
"O=C1c2c(O)cc(O)cc2O[C@H](c2cc(O)c(O)c(O)c2)[C@H]1O [DHM, dihydromyricetin]",TLC analysis of the anthocyanidins in the pink/purple segments,"petal segments of commercial rose cultivars, 1-2 mg/mL",production of delphinidin
same,Color at cut edge after incubation in DHM,"rose cultivar Lambada (orange petal), 1-2 mg/mL",pink/purple
same,Color at cut edge upon production of delphinidin,rose cultivar Lambada (orange petal),pink/purple
same,Color at cut edge after incubation in DHM,"rose cultivar Medeo (pale apricot petal), 1-2 mg/mL",pink/purple
same,Color at cut edge after incubation in DHM,"rose cultivar Mystique (apricot petal), 1-2 mg/mL",pink/purple
same,Color at cut edge after incubation in DHM,"rose cultivar Oceana (cream petal), 1-2 mg/mL",pink/purple
same,Color at cut edge after incubation in DHM,"rose cultivar Pamela (white/pale pink petal), 1-2 mg/mL",pink/purple
same,Color at cut edge after incubation in DHM,"rose cultivar Sonia (apricot/pink petal), 1-2 mg/mL",pink/purple
same,Color at cut edge after incubation in DHM,"rose cultivar Toplesse (pink petal), 1-2 mg/mL",pink/purple
same,Color at cut edge upon production of delphinidin,rose cultivar Toplesse (pink petal),pink/purple
